Measurements reported in US20250002526A1, “PHARMACEUTICAL COMPOSITION HAVING ANTI-CANCER IMMUNOSTIMULATING EFFECT AND/OR IMMUNE CHECKPOINT INHIBITION POTENTIATING EFFECT” (KYUSHU UNIVERSITY, NATIONAL UNIVERSITY CORPORATION, priority 2021, published 2025).
pIC50: −log10 of the molar value. Entries after “also recorded” stand apart in the source; their conditions may differ.

How the values were obtained:
[1] = biological target: T1, recombinant human SULT2B1b protein (Homo sapiens, UniProt O00204); assay: SULT assay (in vitro SULT2B1b enzymatic activity measurement); assay type: biochemical
T1 sequence (O00204 1-365): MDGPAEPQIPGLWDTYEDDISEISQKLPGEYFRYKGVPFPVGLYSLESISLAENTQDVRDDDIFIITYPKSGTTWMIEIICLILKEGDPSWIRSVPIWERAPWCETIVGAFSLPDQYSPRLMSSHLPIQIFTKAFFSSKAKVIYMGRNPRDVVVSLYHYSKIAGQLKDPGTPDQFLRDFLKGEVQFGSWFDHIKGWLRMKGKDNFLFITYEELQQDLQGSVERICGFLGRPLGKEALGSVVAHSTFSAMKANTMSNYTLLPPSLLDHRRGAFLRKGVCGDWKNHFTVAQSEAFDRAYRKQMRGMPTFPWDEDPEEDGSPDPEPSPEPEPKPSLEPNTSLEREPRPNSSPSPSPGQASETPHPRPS
Procedure: For screening for a SULT2B1b inhibitor, enzymatic activity measurement for SULT2B1b was carried out by a method described in a previous report (NPL 2) with slight modifications.
The reaction solution (50 μl) was composed of 1 to 5 μg of recombinant human SULT2B1b protein, 10 μM [^3H]cholesterol (approximately 4,000 dpm/pmol), 10 mM Tris-HCl (pH 7.5, containing 5 mM MgCl2) containing 0.1 mM 3′-phosphoadenosine 5′-phosphosulfate (PAPS), 0.2 mM 2-hydroxypropyl-β-cyclodextrin, and 5% (v/v) ethanol. Recombinant human SULT2B1b protein was pre-incubated with 1 μl of a test compound (final concentration: 40 or 200 μM) or DMSO (control) at room temperature for 15 minutes, 2 mM PAPS (2.5 μl) was then added to initiate reaction, the resultant was reacted at 37° C. for 15 minutes, and 0.8 ml of ethanol was added to terminate the reaction.
The solution after the reaction was subjected to thin-layer chromatography (TLC) for separation, and then to a liquid scintillation counter to quantify radiolabeled CS.
From the percentage to the amount ([…]) of radiolabeled CS generated through reaction in the absence of the test compound (DMSO) (control), the SULT2B1b activity (% activity) of SULT2B1b protein in the presence of the test compound was evaluated, and the effect of the test compound to inhibit SULT2B1b-mediated CS production (CS production inhibitory effect) was evaluated.
In enzyme assay, SULT assay was performed with use of cholenoic acid as a compound to be tested at different cholesterol and PAPS concentrations (wherein 0.5 to 1 μg of recombinant human SULT2B1b protein was used, the preincubation time and reaction time were each 10 minutes), and the results were fitted to the Michaelis-Menten equation by using Prism 9 (GraphPad Software, Inc.) to perform enzyme kinetic analysis for the inhibition by cholenoic acid.
SULT assay was performed for the compounds as test compounds by the method described in (14) of “II. Experimental procedure” in Experiment Example 1 to evaluate the SULT2B1b inhibitory effects of the compounds.

E0771-SULT-OVA cells = assay: In vivo tumor growth of E0771-SULT-OVA cells with OTII T cell transfer; parameters: species or system mouse; settings: activated OTII T cells i.v. day 9, cholenoic acid oral days 12, 13 and 14
Procedure: In T cell transfer experiment, activated OTII CD4^+ T cells (2×10^6) and OTI CD8^+ T cells (5×10^5) were intravenously injected into tumor-bearing mice (see experimental results (4)).
Cholenoic acid was suspended in 0.5% (w/v) methylcellulose 400 solution (FUJIFILM Wako Pure Chemical Corporation) at a proportion of 50 mg/ml, and a 200-μl portion (10 mg) of the suspension was orally administered to mice (see experimental results (6)). To examine the effect on the tumor infiltration of OTII cells or OTI T cells, 5 mg of cholenoic acid was orally administered three times at intervals of 6 hours in 2 days before the assay.
CD4^+ T cells or CD8^+ T cells were magnetically selected from the spleen and peripheral lymph nodes of OTII and OTI TCR transgenic mice with Dynabeads mouse CD4 (Invitrogen), and then treated with DETACHaBEAD™ mouse CD4 (Invitrogen) or separated with a CD8a^+ T Cell Isolation Kit (Miltenyi Biotec). […]
The growth of tumors was monitored by measuring the vertical diameters of each tumor with a caliper twice a week and calculating the tumor volumes from the following expression.

C[C@H](CCC(=O)O)[C@H]1CC[C@H]2[C@@H]3CC=C4C[C@@H](O)CC[C@]4(C)[C@H]3CC[C@]12C [Compound 1, (R)-4-((3S,8S,9S,10R,13R,14S,17R)-3-hydroxy-10,13-dimethyl-2,3,4,7,8,9,10,11,12,13,14,15,16,17-tetradecahydro-1H-cyclopenta[a]phenanthren-17-yl)pentanoic acid]
inhibition mode with respect to PAPS (sulfate donor) ([1]; Michaelis-Menten / Lineweaver-Burk, 10 μM cholesterol): uncompetitively
inhibition mode with respect to cholesterol (substrate) ([1]; Michaelis-Menten / Lineweaver-Burk, 100 μM PAPS): non-competitively
pIC50 ([1]; recombinant human SULT2B1b, read-out: IC50 value (enzyme assay)): 4.61
activity at 200 µM ([1]; test compound 200 μM, relative to DMSO control (100%), read-out: in vitro SULT2B1b assay % activity at 200 μM): 20.6%
growth of E0771-SULT-OVA cells / anti-tumor immunity of OTII T cells (E0771-SULT-OVA cells): recovery of the effect of OTII cell or OTI T cell transplantation; also recorded: the growth of E0771-SULT-OVA cells was suppressed
